Assay results as given in PMC9788223, “Biodegradation of Free Gossypol by Helicoverpa armigera Carboxylesterase Expressed in Pichia pastoris” (Toxins, 2022).

Columns and labels:
CarE CCE001a [1] = molecular target: T1, CarE CCE001a (Helicoverpa armigera, UniProt D9IV61); assay: esterase activity, absorbance at […] nm; type: cell-based; conditions: 37 °C; recombinant protein from P. pastoris expression, purification not described
T1 construct: no purification described
T1 sequence (D9IV61 17-555): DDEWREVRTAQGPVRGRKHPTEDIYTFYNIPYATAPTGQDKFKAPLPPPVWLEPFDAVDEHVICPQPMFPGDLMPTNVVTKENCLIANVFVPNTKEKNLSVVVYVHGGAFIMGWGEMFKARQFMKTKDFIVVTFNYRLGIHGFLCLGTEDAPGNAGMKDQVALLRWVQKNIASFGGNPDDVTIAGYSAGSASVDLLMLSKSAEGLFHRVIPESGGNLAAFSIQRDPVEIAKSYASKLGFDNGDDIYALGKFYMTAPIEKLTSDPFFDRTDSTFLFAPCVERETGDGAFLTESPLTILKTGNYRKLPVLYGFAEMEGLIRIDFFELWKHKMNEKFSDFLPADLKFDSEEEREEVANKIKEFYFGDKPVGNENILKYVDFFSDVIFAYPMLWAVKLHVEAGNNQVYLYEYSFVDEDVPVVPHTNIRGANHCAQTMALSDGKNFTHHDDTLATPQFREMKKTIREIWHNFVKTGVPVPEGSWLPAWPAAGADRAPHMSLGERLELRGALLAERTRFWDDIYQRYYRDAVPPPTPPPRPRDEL

CarE CCE001a [2] = molecular target: T1, CarE CCE001a; assay: free gossypol depletion by HPLC; products by UPLC-QTOF/MS; type: cell-based; conditions: PBS, NADPH-Na4 added, 37 °C, 1.5 h, dark; recombinant protein from P. pastoris expression, purification not described

SMILES | esterase activity, absorbance at 450 nm (CarE CCE001a [1]) | free gossypol depletion by HPLC; products by UPLC-QTOF/MS (CarE CCE001a [2])
CC(=O)Oc1cccc2ccccc12 [alpha-naphthyl acetate] | We also evaluated the enzyme activity of the recombinant CCE001a protein with the model substrate | 
Cc1cc2c(C(C)C)c(O)c(O)c(C=O)c2c(O)c1-c1c(C)cc2c(C(C)C)c(O)c(O)c(C=O)c2c1O [Gossypol] |  | Under the influence of recombinant CarE, TG and FG levels decreased rapidly in the experimental group
